Patent US20250019372A1, “CRYSTALLINE FORMS OF A RIPK1 INHIBITOR” (RIGEL PHARMACEUTICALS, INC., priority 2021, published 2025)

Experiment: Relative thermodynamic stability of the crystalline forms
Type: physicochemical
Details: compared to the other identified Forms A, B, and C; temperature range of RT to 50° C.

## CN1C(=O)[C@@H](NC(=O)c2n[nH]c(Cc3ccccc3)n2)COc2ccc(C#CC(C)(C)O)cc21 [Form D, (S)-5-benzyl-N-(7-(3-hydroxy-3-methylbut-1-yn-1-yl)-5-methyl-4-oxo-2,3,4,5-tetrahydrobenzo[b][1,4]oxazepin-3-yl)-1H-1,2,4-triazole-3-carboxamide]
  thermodynamic stability of the crystalline form: most thermodynamically stable crystalline form
